# According to patent US20060069132A1, “Azolecarboxamide herbicides” (priority 2004, published 2006):
# Legend:
# morningglory = assay: Test B pre-/postemergence herbicide test; format: in vivo, Ipomoea coccinea
# In short: (§1)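 Response was scored visually 13 to 15 days after treatment against untreated greenhouse controls, 0 meaning no effect and 100 complete control. Formulations (solvent mixture plus surfactant) went onto soil after planting, onto foliage of 1- to 4-leaf plants, and onto 2-leaf plants in a flooded paddy set including rice and barnyardgrass.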
# wheat = assay: Test B postemergence herbicide test; format: in vivo, Triticum aestivum; set-up: key to Wheat plant response rating: 0 = no effect, 100 = complete control
# In short: (§2)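 Plants grow to 1- to 4-leaf stage (2–18 cm) for postemergence spraying, or to 2-leaf stage for the paddy test. Formulated compound is applied. Greenhouse holding lasts 13–15 days. Response is scored visually relative to controls, 0 no effect to 100 complete control; a dash means no result.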
# blackgrass = assay: Test B postemergence herbicide test; format: in vivo, Alopecurus myosuroides
# In short: (§3)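 Visual control ratings, 0–100 versus untreated controls, taken after 13 to 15 days in the greenhouse. Blackgrass received a postemergence spray at the 1- to 4-leaf stage (2–18 cm); ducksalad, umbrella sedge and barnyardgrass were flooded-paddy treated at 2 leaves.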
# large crabgrass = assay: Test B pre-/postemergence herbicide test; format: in vivo, Digitaria sanguinalis
# In short: (§4)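 Test chemicals in a non-phytotoxic solvent mixture with surfactant were applied preemergence to seeded species and postemergence to plants 2-18 cm tall (1- to 4-leaf stage); rice and barnyardgrass were also tested in a flooded paddy at the 2-leaf stage. Visual rating versus controls after 13-15 days in greenhouse, scale 0 (no effect) to 100 (complete control).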
# rice = assay: Test B flooded paddy test; format: in vivo, Oryza sativa; settings: 1000 g ai/ha, scale 0 to 100 (0 no effect, 100 complete control)
# In short: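 Paddy species grown to the 2-leaf stage under flooding; blackgrass sprayed postemergence at 2–18 cm (1- to 4-leaf stage). Plants kept in a greenhouse for 13 to 15 days, then visually rated against controls on 0 (no effect) to 100 (complete control).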
# giant foxtail = assay: Test B pre-/postemergence herbicide test; format: in vivo, Setaria faberi
# In short: as §4
# corn = assay: Test B pre-/postemergence herbicide test; format: in vivo, Zea mays
# In short: as §4
# wild oat = assay: Test B postemergence herbicide test; format: in vivo, Avena fatua
# In short: as §2
# velvetleaf = assay: Test B pre-/postemergence herbicide test; format: in vivo, Abutilon theophrasti
# In short: as §4
# barnyardgrass = assay: Test B flooded paddy test; format: in vivo, Echinochloa crus-galli; settings: 1000 g ai/ha, scale 0 to 100 (0 no effect, 100 complete control)
# In short: as §3
# pigweed = assay: Test B pre-/postemergence herbicide test; format: in vivo, Amaranthus retroflexus
# In short: as §4
# [1] = tested on: small flower umbrella sedge; assay: Test B flooded paddy test; format: in vivo, Cyperus difformis; settings: 1000 g ai/ha, scale 0 to 100 (0 no effect, 100 complete control)
# In short: as §3
# lambsquarters = assay: Test B pre-/postemergence herbicide test; format: in vivo, Chenopodium album
# In short: as §4
# Surinam grass = assay: Test B pre-/postemergence herbicide test; format: in vivo, Urochloa decumbens
# In short: as §4
# cocklebur = assay: Test B pre-/postemergence herbicide test; format: in vivo, Xanthium strumarium
# In short: as §1
# [2] = 125 g ai/ha, 0 is no effect, 100 is complete control, preemergence
# [3] = Postemergence, 500 g ai/ha, scale 0 (no effect) to 100 (complete control)
# [4] = postemergence, 125 g ai/ha, scale 0 to 100
# [5] = 500 g ai/ha, visual rating 0-100, 0 no effect, 100 complete control, preemergence
# [6] = Postemergence, 500 g ai/ha, visual rating after 13 to 15 days, scale 0 (no effect) to 100 (complete control)
# [7] = postemergence, 125 g ai/ha, visual rating, scale 0 (no effect) to 100 (complete control)
# [8] = preemergence, 125 g ai/ha, 0 to 100 scale, 0 is no effect, 100 is complete control
# [9] = 125 g ai/ha, visual rating, scale 0 (no effect) to 100 (complete control), postemergence
# [10] = postemergence, 500 g ai/ha, scale 0 to 100, 0 is no effect, 100 is complete control
# [11] = 500 g ai/ha, visual rating, 0 = no effect, 100 = complete control, preemergence
smiles,measurement,setting,value
C#CCOc1cccc(NC(=O)c2cc(C(C)(C)C)nn2CC)c1 [Compound 411],"Plant response rating (0 to 100 scale), Morningglory",morningglory; [2],0
same,Morningglory plant response rating,morningglory; [3],0
same,Morningglory plant response rating,morningglory; [4],0
same,Wheat plant response rating,"wheat; 500 g ai/ha, scale 0 to 100, 0 no effect, 100 complete control, preemergence",60
same,Wheat plant response rating,wheat; [3],30
same,Wheat plant response rating,wheat; [4],20
same,Blackgrass plant response rating,blackgrass; [3],60
same,Blackgrass plant response rating,blackgrass; [4],40
same,"Plant response rating (0 to 100 scale), Crabgrass, Large",large crabgrass; [2],80
same,"Crabgrass, Large plant response rating",large crabgrass; [3],30
same,"Crabgrass, Large plant response rating",large crabgrass; [4],0
same,Rice plant response rating,rice,50
same,"Plant response rating (0 to 100 scale), Foxtail, Giant",giant foxtail; [2],10
same,"Foxtail, Giant plant response rating",giant foxtail; [3],30
same,"Foxtail, Giant plant response rating",giant foxtail; [4],20
same,"Plant response rating (0 to 100 scale), Corn",corn; [2],0
same,Corn plant response rating,corn; [3],10
same,Corn plant response rating,corn; [4],10
same,"Oat, Wild plant response rating",wild oat; [3],50
same,"Oat, Wild plant response rating",wild oat; [4],40
same,"Plant response rating (0 to 100 scale), Velvetleaf",velvetleaf; [2],0
same,Velvetleaf plant response rating,velvetleaf; [3],10
same,Velvetleaf plant response rating,velvetleaf; [4],0
same,Barnyardgrass plant response rating,barnyardgrass,50
same,"Plant response rating (0 to 100 scale), Pigweed",pigweed; [2],30
same,Pigweed plant response rating,pigweed; [3],90
same,Pigweed plant response rating,pigweed; [4],80
same,"Sedge, Umbrella plant response rating",[1],80
same,"Plant response rating (0 to 100 scale), Lambsquarters",lambsquarters; [2],50
same,Lambsquarters plant response rating,lambsquarters; [3],90
same,Lambsquarters plant response rating,lambsquarters; [4],20
same,"Plant response rating (0 to 100 scale), Surinam Grass",Surinam grass; [2],10
same,Surinam Grass plant response rating,Surinam grass; [3],10
same,Surinam Grass plant response rating,Surinam grass; [4],0
same,"Plant response rating (0 to 100 scale), Cocklebur",cocklebur; [2],0
same,Cocklebur plant response rating,cocklebur; [3],60
same,Cocklebur plant response rating,cocklebur; [4],0
CCC(=NO)c1cccc(NC(=O)c2cc(C(C)(C)C)nn2C)c1 [Compound 118],"Plant response rating, Morningglory",morningglory; [5],60
same,"Plant response rating, Morningglory",morningglory; [6],70
same,Morningglory plant response rating,morningglory; [7],20
same,"Plant response rating, Morningglory",morningglory; [8],10
same,"Plant response rating, Wheat",wheat; [6],10
same,Wheat plant response rating,wheat; [7],10
same,"Plant response rating, Blackgrass",blackgrass; [6],10
same,Blackgrass plant response rating,blackgrass; [7],0
same,"Plant response rating, Crabgrass, Large",large crabgrass; [5],100
same,"Plant response rating, Crabgrass, Large",large crabgrass; [6],30
same,"Crabgrass, Large plant response rating",large crabgrass; [7],20
same,"Plant response rating, Crabgrass, Large",large crabgrass; [8],90
same,Rice plant response rating,"rice; visual rating, 13 to 15 days",80
same,"Plant response rating, Foxtail, Giant",giant foxtail; [5],70
same,"Plant response rating, Foxtail, Giant",giant foxtail; [6],20
same,"Foxtail, Giant plant response rating",giant foxtail; [7],10
same,"Plant response rating, Foxtail, Giant",giant foxtail; [8],10
same,"Plant response rating, Corn",corn; [5],10
same,"Plant response rating, Corn",corn; [6],40
same,Corn plant response rating,corn; [7],20
same,"Plant response rating, Corn",corn; [8],0
same,"Plant response rating, Oat, Wild",wild oat; [6],20
same,"Oat, Wild plant response rating",wild oat; [7],20
same,"Plant response rating, Velvetleaf",velvetleaf; [5],10
same,"Plant response rating, Velvetleaf",velvetleaf; [6],40
same,Velvetleaf plant response rating,velvetleaf; [7],20
same,"Plant response rating, Velvetleaf",velvetleaf; [8],0
same,Barnyardgrass plant response rating,"barnyardgrass; visual rating, 13 to 15 days",50
same,"Plant response rating, Pigweed",pigweed; [5],90
same,"Plant response rating, Pigweed",pigweed; [6],100
same,Pigweed plant response rating,pigweed; [7],60
same,"Plant response rating, Pigweed",pigweed; [8],60
same,"Sedge, Umbrella plant response rating","[1]; visual rating, 13 to 15 days",80
same,"Plant response rating, Lambsquarters",lambsquarters; [5],0
same,"Plant response rating, Lambsquarters",lambsquarters; [6],20
same,Lambsquarters plant response rating,lambsquarters; [7],0
same,"Plant response rating, Lambsquarters",lambsquarters; [8],0
same,"Plant response rating, Surinam Grass",Surinam grass; [5],50
same,"Plant response rating, Surinam Grass",Surinam grass; [6],40
same,Surinam Grass plant response rating,Surinam grass; [7],40
same,"Plant response rating, Surinam Grass",Surinam grass; [8],10
same,"Plant response rating, Cocklebur",cocklebur; [5],10
same,"Plant response rating, Cocklebur",cocklebur; [6],90
same,Cocklebur plant response rating,cocklebur; [7],70
same,"Plant response rating, Cocklebur",cocklebur; [8],0
CCC1=NN(C(C)(C)C)CC1C(=O)Nc1cc(C(=O)N2CC=CC2)ccc1F (racemic) [Compound 340],"Plant response rating (0 to 100 scale), Morningglory",morningglory; [2],30
same,Morningglory plant response rating,morningglory; [9],10
same,Morningglory plant response rating,morningglory; [10],40
same,Wheat plant response rating,wheat; [9],0
same,Wheat plant response rating,wheat; [10],10
same,Blackgrass plant response rating,blackgrass; [9],20
same,Blackgrass plant response rating,blackgrass; [10],30
same,"Plant response rating (0 to 100 scale), Crabgrass, Large",large crabgrass; [2],80
same,"Crabgrass, Large plant response rating",large crabgrass; [9],10
same,"Plant response rating, Crabgrass, Large",large crabgrass; [11],100
same,"Crabgrass, Large plant response rating",large crabgrass; [10],20
same,Rice plant response rating,rice,80
same,"Plant response rating (0 to 100 scale), Foxtail, Giant",giant foxtail; [2],60
same,"Foxtail, Giant plant response rating",giant foxtail; [9],20
same,"Plant response rating, Foxtail, Giant",giant foxtail; [11],100
same,"Foxtail, Giant plant response rating",giant foxtail; [10],40
same,Corn plant response rating,corn; [9],0
same,Corn plant response rating,corn; [10],20
same,"Oat, Wild plant response rating",wild oat; [9],20
same,"Oat, Wild plant response rating",wild oat; [10],30
same,"Plant response rating (0 to 100 scale), Velvetleaf",velvetleaf; [2],70
same,Velvetleaf plant response rating,velvetleaf; [9],20
same,Velvetleaf plant response rating,velvetleaf; [10],40
same,Barnyardgrass plant response rating,barnyardgrass,90
same,"Plant response rating (0 to 100 scale), Pigweed",pigweed; [2],100
same,Pigweed plant response rating,pigweed; [9],50
same,"Plant response rating, Pigweed",pigweed; [11],100
same,Pigweed plant response rating,pigweed; [10],80
same,"Sedge, Umbrella plant response rating",[1],80
same,"Plant response rating (0 to 100 scale), Lambsquarters",lambsquarters; [2],90
same,Lambsquarters plant response rating,lambsquarters; [9],30
same,"Plant response rating, Lambsquarters",lambsquarters; [11],100
same,Lambsquarters plant response rating,lambsquarters; [10],70
same,"Plant response rating (0 to 100 scale), Surinam Grass",Surinam grass; [2],80
same,Surinam Grass plant response rating,Surinam grass; [9],10
same,"Plant response rating, Surinam Grass",Surinam grass; [11],100
same,Surinam Grass plant response rating,Surinam grass; [10],20
same,"Plant response rating (0 to 100 scale), Cocklebur",cocklebur; [2],20
same,Cocklebur plant response rating,cocklebur; [9],0
same,"Plant response rating, Cocklebur",cocklebur; [11],50
same,Cocklebur plant response rating,cocklebur; [10],20
